{"source": "ChEMBL document CHEMBL1201862", "about": "“PubChem BioAssay data set” (2004)", "experiment_in_all_cases": "NCI-60 cell line screen, 48 h", "key": {"BT-549": {"tested_on": "BT-549"}, "HL-60": {"tested_on": "HL-60"}, "IGROV-1": {"tested_on": "IGROV-1"}, "RPMI-8226": {"tested_on": "RPMI-8226"}, "SK-MEL-5": {"tested_on": "SK-MEL-5"}, "SR": {"tested_on": "SR"}, "786-0": {"tested_on": "786-0"}, "A498": {"tested_on": "A498"}, "A549": {"tested_on": "A549"}, "ACHN": {"tested_on": "ACHN"}, "CAKI-1": {"tested_on": "CAKI-1"}, "CCRF-CEM": {"tested_on": "CCRF-CEM"}, "COLO 205": {"tested_on": "COLO 205"}, "DU-145": {"tested_on": "DU-145"}, "EKVX": {"tested_on": "EKVX"}, "HCC 2998": {"tested_on": "HCC 2998"}, "HCT-116": {"tested_on": "HCT-116"}, "HCT-15": {"tested_on": "HCT-15"}, "HOP-62": {"tested_on": "HOP-62"}, "HOP-92": {"tested_on": "HOP-92"}, "HT-29": {"tested_on": "HT-29"}, "Hs-578T": {"tested_on": "Hs-578T"}, "K562": {"tested_on": "K562"}, "KM12": {"tested_on": "KM12"}, "LOX IMVI": {"tested_on": "LOX IMVI"}, "M14": {"tested_on": "M14"}, "MCF7": {"tested_on": "MCF7"}, "MDA-MB-231": {"tested_on": "MDA-MB-231"}, "MDA-MB-435": {"tested_on": "MDA-MB-435"}, "MDA-N": {"tested_on": "MDA-N"}, "MOLT-4": {"tested_on": "MOLT-4"}, "Malme-3M": {"tested_on": "Malme-3M"}, "NCI-H226": {"tested_on": "NCI-H226"}, "NCI-H23": {"tested_on": "NCI-H23"}, "NCI-H460": {"tested_on": "NCI-H460"}, "NCI-H522": {"tested_on": "NCI-H522"}, "NCI/ADR-RES": {"tested_on": "NCI/ADR-RES"}, "OVCAR-3": {"tested_on": "OVCAR-3"}, "OVCAR-4": {"tested_on": "OVCAR-4"}, "OVCAR-8": {"tested_on": "OVCAR-8"}, "PC-3": {"tested_on": "PC-3"}, "RXF 393": {"tested_on": "RXF 393"}, "SF-268": {"tested_on": "SF-268"}, "SF-295": {"tested_on": "SF-295"}, "SF-539": {"tested_on": "SF-539"}, "SK-MEL-28": {"tested_on": "SK-MEL-28"}, "SK-MEL-2": {"tested_on": "SK-MEL-2"}, "SK-OV-3": {"tested_on": "SK-OV-3"}, "SN12C": {"tested_on": "SN12C"}, "SNB-19": {"tested_on": "SNB-19"}, "SNB-75": {"tested_on": "SNB-75"}, "SW-620": {"tested_on": "SW-620"}, "T47D": {"tested_on": "T47D"}, "TK-10": {"tested_on": "TK-10"}, "U-251": {"tested_on": "U-251"}, "UACC-257": {"tested_on": "UACC-257"}, "UACC-62": {"tested_on": "UACC-62"}, "UO-31": {"tested_on": "UO-31"}}, "note": "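48-hour exposure; five concentrations; linearly interpolated endpoints. At the GI50, growth is halved.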 Calls of active or inactive are those of the source. Rule as the data show it: active = GI50 up to about 1.1 µM and inactive = higher.", "data": [{"compound": "Oc1cccc2cccnc12", "values": [{"measurement": "GI50", "setting": "BT-549", "result": "61.1 µM (inactive)"}, {"measurement": "GI50", "setting": "HL-60", "result": "0.294 µM (active)"}, {"measurement": "GI50", "setting": "IGROV-1", "result": "4.27 µM (inactive)"}, {"measurement": "GI50", "setting": "RPMI-8226", "result": "0.918 µM (active)"}, {"measurement": "GI50", "setting": "SK-MEL-5", "result": "4.86 µM (inactive)"}, {"measurement": "GI50", "setting": "SR", "result": "0.342 µM (active)"}]}, {"compound": "C/C(CC(O)(C(F)(F)F)C(F)(F)F)=N/Nc1ccc([N+](=O)[O-])cc1[N+](=O)[O-]", "values": [{"measurement": "GI50", "setting": "786-0", "result": "3.5 µM (inactive)"}, {"measurement": "GI50", "setting": "A498", "result": "2.39 µM (inactive)"}, {"measurement": "GI50", "setting": "A549", "result": "2.54 µM (inactive)"}, {"measurement": "GI50", "setting": "ACHN", "result": "2.56 µM (inactive)"}, {"measurement": "GI50", "setting": "CAKI-1", "result": "2.24 µM (inactive)"}, {"measurement": "GI50", "setting": "CCRF-CEM", "result": "3.41 µM (inactive)"}, {"measurement": "GI50", "setting": "COLO 205", "result": "2.05 µM (inactive)"}, {"measurement": "GI50", "setting": "DU-145", "result": "2.29 µM (inactive)"}, {"measurement": "GI50", "setting": "EKVX", "result": "2.26 µM (inactive)"}, {"measurement": "GI50", "setting": "HCC 2998", "result": "3.6 µM (inactive)"}, {"measurement": "GI50", "setting": "HCT-116", "result": "1.75 µM (inactive)"}, {"measurement": "GI50", "setting": "HCT-15", "result": 2.85, "unit": "µM"}, {"measurement": "GI50", "setting": "HL-60", "result": "2.94 µM (inactive)"}, {"measurement": "GI50", "setting": "HOP-62", "result": "2.99 µM (inactive)"}, {"measurement": "GI50", "setting": "HOP-92", "result": "1.8 µM (inactive)"}, {"measurement": "GI50", "setting": "HT-29", "result": "2.69 µM (inactive)"}, {"measurement": "GI50", "setting": "Hs-578T", "result": "2.81 µM (inactive)"}, {"measurement": "GI50", "setting": "IGROV-1", "result": "4.15 µM (inactive)"}, {"measurement": "GI50", "setting": "K562", "result": "2.44 µM (inactive)"}, {"measurement": "GI50", "setting": "KM12", "result": "3.21 µM (inactive)"}, {"measurement": "GI50", "setting": "LOX IMVI", "result": "3.3 µM (inactive)"}, {"measurement": "GI50", "setting": "M14", "result": "3.61 µM (inactive)"}, {"measurement": "GI50", "setting": "MCF7", "result": "2.97 µM (inactive)"}, {"measurement": "GI50", "setting": "MDA-MB-231", "result": "2.28 µM (inactive)"}, {"measurement": "GI50", "setting": "MDA-MB-435", "result": "3.15 µM (inactive)"}, {"measurement": "GI50", "setting": "MDA-N", "result": "4.46 µM (inactive)"}, {"measurement": "GI50", "setting": "MOLT-4", "result": "4.4 µM (inactive)"}, {"measurement": "GI50", "setting": "Malme-3M", "result": "2.11 µM (inactive)"}, {"measurement": "GI50", "setting": "NCI-H226", "result": "2.06 µM (inactive)"}, {"measurement": "GI50", "setting": "NCI-H23", "result": "2.46 µM (inactive)"}, {"measurement": "GI50", "setting": "NCI-H460", "result": "3.11 µM (inactive)"}, {"measurement": "GI50", "setting": "NCI-H522", "result": "2.07 µM (inactive)"}, {"measurement": "GI50", "setting": "NCI/ADR-RES", "result": "2.85 µM (inactive)"}, {"measurement": "GI50", "setting": "OVCAR-3", "result": "1.96 µM (inactive)"}, {"measurement": "GI50", "setting": "OVCAR-4", "result": "3.42 µM (inactive)"}, {"measurement": "GI50", "setting": "OVCAR-8", "result": "3 µM (inactive)"}, {"measurement": "GI50", "setting": "PC-3", "result": "2.78 µM (inactive)"}, {"measurement": "GI50", "setting": "RPMI-8226", "result": "1.56 µM (inactive)"}, {"measurement": "GI50", "setting": "RXF 393", "result": "2.12 µM (inactive)"}, {"measurement": "GI50", "setting": "SF-268", "result": "2.81 µM (inactive)"}, {"measurement": "GI50", "setting": "SF-295", "result": "4.1 µM (inactive)"}, {"measurement": "GI50", "setting": "SF-539", "result": "3.78 µM (inactive)"}, {"measurement": "GI50", "setting": "SK-MEL-28", "result": "3.27 µM (inactive)"}, {"measurement": "GI50", "setting": "SK-MEL-2", "result": "2.28 µM (inactive)"}, {"measurement": "GI50", "setting": "SK-MEL-5", "result": "1.68 µM (inactive)"}, {"measurement": "GI50", "setting": "SK-OV-3", "result": "2.33 µM (inactive)"}, {"measurement": "GI50", "setting": "SN12C", "result": "3.7 µM (inactive)"}, {"measurement": "GI50", "setting": "SNB-19", "result": "3.27 µM (inactive)"}, {"measurement": "GI50", "setting": "SNB-75", "result": "2.69 µM (inactive)"}, {"measurement": "GI50", "setting": "SR", "result": "4.9 µM (inactive)"}, {"measurement": "GI50", "setting": "SW-620", "result": "3.44 µM (inactive)"}, {"measurement": "GI50", "setting": "T47D", "result": "1.08 µM (active)"}, {"measurement": "GI50", "setting": "TK-10", "result": "3.56 µM (inactive)"}, {"measurement": "GI50", "setting": "U-251", "result": "2.67 µM (inactive)"}, {"measurement": "GI50", "setting": "UACC-257", "result": "2.87 µM (inactive)"}, {"measurement": "GI50", "setting": "UACC-62", "result": "3.02 µM (inactive)"}, {"measurement": "GI50", "setting": "UO-31", "result": "2.32 µM (inactive)"}]}]}
